{"source": "patent US12258339B2", "about": "“Macrocyclic complexes of alpha-emitting radionuclides and their use in targeted radiotherapy of cancer” (Cornell University, priority 2018, dated 2025)", "test": "Stability of [^225Ac(macropa)]^+ in human serum", "assay_type": "in vitro ADME", "details": "radio-TLC", "method": "[…]. [^225Ac(macropa)]^+ and [^225Ac(DOTA)]^− were prepared using 10^−5 M and 10^−3 M stock solutions (10 μL) of macropa and DOTA, respectively, to give final ligand concentrations of 5.9×10^−7 M (macropa) and 5.9×10^−5 M (DOTA). After confirming a radiochemical yield of >90% by TLC using 0.4 M sodium citrate (pH 4) containing 10% MeOH as the mobile phase, 160 μL of human serum (an equal volume based on labeling reaction volume) were added to each radiolabeled solution. A control solution was also prepared in which water was substituted for ligand. The solutions were monitored over the course of 8 days by iTLC. The plates were developed with EDTA (50 mM, pH 5) as the eluent. Under these conditions, [^225Ac(macropa)]^+ and [^225Ac(DOTA)]^− complexes remained at the baseline (RF=0) and any ^225Ac (^225Ac-EDTA) that had been transchelated by serum migrated with the solvent front (RF=1). Percent of complex remaining intact was calculated.\nThe long half-life of ^225Ac necessitates its stable complex retention in vivo to avoid off-target damage to normal tissues arising from the release of free ^225Ac^3+. Furthermore, the stability of ^225Ac complexes against transmetalation and transchelation needs to be high. To determine the kinetic inertness, [^225Ac(macropa)]^+ was challenged with La^3+ because of the established high affinity of macropa for this metal ion. […]", "data": [{"smiles": "O=C([O-])c1cccc(CN2CCOCCOCCN(Cc3cccc(C(=O)[O-])n3)CCOCCOCC2)n1.[225Ac+3]", "note": "[[^225Ac(macropa)]^+]", "values": [{"measurement": "time ^225Ac^3+ remains complexed in human serum", "value": "at least 8 days"}]}]}
